Data: patent publication US20170050957A1, “4-AMINO-6-(HETEROCYCLIC)PICOLINATES AND 6-AMINO-2-(HETEROCYCLIC)PYRIMIDINE-4-CARBOXYLATES AND THEIR USE AS HERBICIDES” (Dow AgroSciences LLC, priority 2013, published 2017)
Like-named read-outs stand apart in the source and are kept apart here.

Columns and labels:
[1] = test system: Key Broadleaf Weed and Crop Species; assay: Post-emergent Test II herbicidal activity (Table 15); assay type: in vivo; details: post-emergence, 336 h, 14 d; for pest or weed control at 35 g/ha: 35 g ai/ha; for pest or weed control at 70 g/ha: 70 g ai/ha; for pest or weed control at 140 g/ha: 140 g ai/ha
In short: (§1)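 Plants at first-second true leaf stage, grown 7-21 d in greenhouse (~15 h photoperiod, 23-29 °C day), were track-sprayed at 187 L/ha with compound in acetone/DMSO/water/isopropanol/crop oil/Triton X-155 at a high rate plus 1/2× to 1/16× dilutions. Injury scored visually after 14 d versus untreated plants, 0 (none) to 100% (complete kill).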

[2] = test system: Key Grass and Sedge Weeds as well as Grass Crops; assay: Post-emergent Test II herbicidal activity (Table 16); assay type: in vivo; details: post-emergence, 336 h, 14 days after application; for pest or weed control at 35 g/ha: 35 g ai/ha; for pest or weed control at 70 g/ha: 70 g ai/ha; for pest or weed control at 140 g/ha: 140 g ai/ha
In short: as §1

[3] = Abutilon theophrasti, velvetleaf (Abutilon theophrasti), read-out: Visual Growth Reduction (%) 14 Days After Application, ABUTH
[4] = Amaranthus retroflexus, redroot pigweed (Amaranthus retroflexus), read-out: Visual Growth Reduction (%) 14 Days After Application, AMARE
[5] = Brassica napus, oilseed rape, canola (Brassica napus), read-out: Visual Growth Reduction (%) 14 Days After Application, BRSNN
[6] = Chenopodium album, lambsquarters (Chenopodium album), read-out: Visual Growth Reduction (%) 14 Days After Application, CHEAL
[7] = Euphorbia heterophylla, wild poinsettia (Euphorbia heterophylla), read-out: Visual Growth Reduction (%) 14 Days After Application, EPHHL
[8] = Helianthus annuus, sunflower (Helianthus annuus), read-out: Visual Growth Reduction (%) 14 Days After Application, HELAN
[9] = Cyperus esculentus, yellow nutsedge (Cyperus esculentus), read-out: Visual Growth Reduction (%) 14 Days After Application CYPES
[10] = Echinochloa crus-galli, barnyardgrass (Echinochloa crus-galli), read-out: Visual Growth Reduction (%) 14 Days After Application ECHCG
[11] = Oryza sativa, rice (Oryza sativa), read-out: Visual Growth Reduction (%) 14 Days After Application ORYSA
[12] = Triticum aestivum, wheat, spring (Triticum aestivum), read-out: Visual Growth Reduction (%) 14 Days After Application TRZAS
[13] = Zea mays, maize, corn (Zea mays), read-out: Visual Growth Reduction (%) 14 Days After Application ZEAMX
[14] = Setaria faberi, giant foxtail (Setaria faberi), read-out: Visual Growth Reduction (%) 14 Days After Application SETFA

Row | Structure (SMILES) | pest or weed control at 35 g/ha [1, 3] | pest or weed control at 70 g/ha [1, 3] | pest or weed control at 140 g/ha [1, 3] | pest or weed control at 35 g/ha [1, 4] | pest or weed control at 70 g/ha [1, 4] | pest or weed control at 140 g/ha [1, 4] | pest or weed control at 35 g/ha [1, 5] | pest or weed control at 70 g/ha [1, 5] | pest or weed control at 140 g/ha [1, 5] | pest or weed control at 35 g/ha [1, 6] | pest or weed control at 70 g/ha [1, 6] | pest or weed control at 140 g/ha [1, 6] | pest or weed control at 35 g/ha [1, 7] | pest or weed control at 70 g/ha [1, 7] | pest or weed control at 140 g/ha [1, 7] | pest or weed control at 35 g/ha [1, 8] | pest or weed control at 70 g/ha [1, 8] | pest or weed control at 140 g/ha [1, 8] | pest or weed control at 35 g/ha [2, 9] | pest or weed control at 70 g/ha [2, 9] | also measured
1 | Nc1c(F)c(-c2ccc3ccsc3c2)nc(C(=O)O)c1Cl [Compound 3.13] | 0 to 29% | 0 to 29% | 75 to 84% | 95 to 100% | 95 to 100% | 95 to 100% | 0 to 29% | 0 to 29% | 60 to 74% | 85 to 94% | 95 to 100% | 95 to 100% | 0 to 29% | 0 to 29% | 60 to 74% | 85 to 94% | 85 to 94% | 85 to 94% | 0 to 29% | 0 to 29% | pest or weed control at 140 g/ha [2, 9]: 0 to 29%; pest or weed control at 35 g/ha [2, 10]: 60 to 74%; pest or weed control at 70 g/ha [2, 10]: 60 to 74%; pest or weed control at 140 g/ha [2, 10]: 75 to 84%; pest or weed control at 35 g/ha [2, 11]: 0 to 29%; pest or weed control at 70 g/ha [2, 11]: 0 to 29%; pest or weed control at 140 g/ha [2, 11]: 0 to 29%; pest or weed control at 35 g/ha [2, 12]: 0 to 29%; pest or weed control at 70 g/ha [2, 12]: 0 to 29%; pest or weed control at 140 g/ha [2, 12]: 0 to 29%; pest or weed control at 35 g/ha [2, 13]: 60 to 74%; pest or weed control at 70 g/ha [2, 13]: 60 to 74%; pest or weed control at 140 g/ha [2, 13]: 60 to 74%; melting point: 165 to 167 °C
2 | COC(=O)c1nc(-c2cc3sccc3cc2F)cc(N)c1Cl [Compound 3.17] | 0 to 29% | 45 to 59% | 60 to 74% | 75 to 84% | 95 to 100% | 95 to 100% | 0 to 29% | 0 to 29% | 60 to 74% | 85 to 94% | 95 to 100% | 95 to 100% | 45 to 59% | 60 to 74% | 75 to 84% | 0 to 29% | 0 to 29% | 30 to 44% | 0 to 29% | 0 to 29% | pest or weed control at 140 g/ha [2, 9]: 0 to 29%; pest or weed control at 35 g/ha [2, 10]: 45 to 59%; pest or weed control at 70 g/ha [2, 10]: 60 to 74%; pest or weed control at 140 g/ha [2, 10]: 95 to 100%; pest or weed control at 35 g/ha [2, 11]: 0 to 29%; pest or weed control at 70 g/ha [2, 11]: 0 to 29%; pest or weed control at 140 g/ha [2, 11]: 0 to 29%; pest or weed control at 35 g/ha [2, 14]: 0 to 29%; pest or weed control at 70 g/ha [2, 14]: 0 to 29%; pest or weed control at 140 g/ha [2, 14]: 30 to 44%; pest or weed control at 35 g/ha [2, 12]: 0 to 29%; pest or weed control at 70 g/ha [2, 12]: 0 to 29%; pest or weed control at 140 g/ha [2, 12]: 0 to 29%; pest or weed control at 35 g/ha [2, 13]: 30 to 44%; pest or weed control at 70 g/ha [2, 13]: 60 to 74%; pest or weed control at 140 g/ha [2, 13]: 75 to 84%; melting point: 70 °C
